Results reported in ChEMBL document CHEMBL1201862, “PubChem BioAssay data set” (2004).
Calls of active or inactive are those of the source.

Tests used:
[1] = molecular target: T1, Oxysterols receptor LXR-beta (Homo sapiens, UniProt P55055); type: functional, cell-based;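 also: Cell-based luminescence dose-response assay of agonist activity at LXR, run as a confirmatory counterscreen to a daf-12 agonist screen; HEK293 cells with Gal4-LXR fusion and GAL4-driven luciferase reporter; agonist potency from rising luciferase signal of a Gal4-LXR reporter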
T1 sequence (P55055 whole entry): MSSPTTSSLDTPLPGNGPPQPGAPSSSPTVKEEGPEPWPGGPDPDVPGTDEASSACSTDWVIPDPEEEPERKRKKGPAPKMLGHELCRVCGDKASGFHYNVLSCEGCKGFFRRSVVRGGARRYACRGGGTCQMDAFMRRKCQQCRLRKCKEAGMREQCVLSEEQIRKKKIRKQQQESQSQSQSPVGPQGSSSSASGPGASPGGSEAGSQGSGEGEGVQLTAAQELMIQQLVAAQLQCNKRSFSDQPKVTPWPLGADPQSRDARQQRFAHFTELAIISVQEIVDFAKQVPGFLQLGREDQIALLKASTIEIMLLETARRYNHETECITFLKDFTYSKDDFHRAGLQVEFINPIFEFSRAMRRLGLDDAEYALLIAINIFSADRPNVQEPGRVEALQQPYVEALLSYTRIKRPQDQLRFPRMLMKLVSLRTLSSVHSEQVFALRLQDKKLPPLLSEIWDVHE

[2] = molecular target: T2, Estrogen receptor (Homo sapiens, UniProt P03372); assay: potentiators of ERα–SRC-1 coactivator binding, dose response, biochemical, TR-FRET, ERα LBD (AID 737)
T2 sequence (P03372 whole entry): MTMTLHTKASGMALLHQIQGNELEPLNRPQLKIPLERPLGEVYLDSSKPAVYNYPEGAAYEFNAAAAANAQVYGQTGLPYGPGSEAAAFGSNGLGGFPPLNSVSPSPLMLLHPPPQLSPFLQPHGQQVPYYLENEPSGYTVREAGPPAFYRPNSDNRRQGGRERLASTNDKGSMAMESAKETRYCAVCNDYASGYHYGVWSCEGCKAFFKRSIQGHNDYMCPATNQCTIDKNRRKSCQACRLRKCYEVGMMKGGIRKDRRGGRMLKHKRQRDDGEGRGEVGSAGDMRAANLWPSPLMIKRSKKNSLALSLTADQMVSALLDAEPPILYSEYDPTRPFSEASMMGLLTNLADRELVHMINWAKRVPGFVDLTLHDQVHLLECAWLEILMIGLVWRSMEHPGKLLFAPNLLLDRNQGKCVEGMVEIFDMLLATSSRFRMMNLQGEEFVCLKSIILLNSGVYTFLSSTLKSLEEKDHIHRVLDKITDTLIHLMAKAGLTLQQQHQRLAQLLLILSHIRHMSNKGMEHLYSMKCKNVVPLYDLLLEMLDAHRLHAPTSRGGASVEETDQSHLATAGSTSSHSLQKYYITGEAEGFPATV

[3] = molecular target: T3, Zinc finger protein mex-5 (Caenorhabditis elegans, UniProt Q9XUB2); assay: MEX-5/TCR-2 RNA interaction inhibitors, dose response, biochemical, C. elegans, fluorescence polarization (AID 1960)
T3 sequence (Q9XUB2 whole entry): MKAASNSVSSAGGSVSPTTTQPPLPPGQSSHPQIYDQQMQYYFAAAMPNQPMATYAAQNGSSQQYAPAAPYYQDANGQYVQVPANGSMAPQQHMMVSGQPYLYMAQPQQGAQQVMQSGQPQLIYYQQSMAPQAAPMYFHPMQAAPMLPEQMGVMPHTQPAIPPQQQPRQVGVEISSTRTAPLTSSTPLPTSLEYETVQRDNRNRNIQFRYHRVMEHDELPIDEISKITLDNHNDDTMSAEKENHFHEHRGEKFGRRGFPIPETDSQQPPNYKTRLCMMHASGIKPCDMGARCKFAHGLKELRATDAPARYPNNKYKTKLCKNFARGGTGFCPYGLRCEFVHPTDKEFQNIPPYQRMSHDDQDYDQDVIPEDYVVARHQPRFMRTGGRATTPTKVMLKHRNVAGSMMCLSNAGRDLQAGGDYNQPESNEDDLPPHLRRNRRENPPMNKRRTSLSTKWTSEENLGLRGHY

[4] = molecular target: T4, RNA-binding protein pos-1 (Caenorhabditis elegans, UniProt G5EF15); assay: inhibitors of POS-1/mex-3 RNA binding, dose response, biochemical, fluorescence polarization (AID 1964);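 also: purified POS-1 fused to maltose binding protein made in E. coli; potency of compounds blocking POS-1 binding to fluorescent RNA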
T4 sequence (G5EF15 whole entry): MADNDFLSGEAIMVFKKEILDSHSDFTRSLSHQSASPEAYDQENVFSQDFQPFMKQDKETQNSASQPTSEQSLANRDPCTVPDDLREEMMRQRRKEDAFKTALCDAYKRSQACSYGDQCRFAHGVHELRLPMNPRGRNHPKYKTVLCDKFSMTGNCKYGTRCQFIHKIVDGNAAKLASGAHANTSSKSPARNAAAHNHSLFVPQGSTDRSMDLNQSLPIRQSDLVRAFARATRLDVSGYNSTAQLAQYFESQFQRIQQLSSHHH

[5] = cells
[6] = molecular target: Protein Tat (Human immunodeficiency virus type 1 group M subtype B (isolate HXB2)(HIV-1), UniProt P04608); type: functional;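 also: tat binding to TAR RNA read out by fluorescence polarization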
[7] = molecular target: T5, Carboxy-terminal domain RNA polymerase II polypeptide A small phosphatase 1 (Homo sapiens, UniProt Q9GZU7); assay: inhibitors of CTDSP1, concentration-response testing, biochemical assay, absorbance-based, actives from ultra-high-throughput screening (AID 540297); type: functional
T5 sequence (Q9GZU7 whole entry): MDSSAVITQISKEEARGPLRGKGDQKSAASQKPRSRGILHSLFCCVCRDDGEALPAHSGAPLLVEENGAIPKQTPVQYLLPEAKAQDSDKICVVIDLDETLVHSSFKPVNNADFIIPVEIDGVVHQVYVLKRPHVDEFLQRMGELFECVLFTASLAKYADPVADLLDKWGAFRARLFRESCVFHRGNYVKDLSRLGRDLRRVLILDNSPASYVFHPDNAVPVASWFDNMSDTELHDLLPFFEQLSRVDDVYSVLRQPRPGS

[8] = molecular target: T6, Probable nicotinate-nucleotide adenylyltransferase (Staphylococcus aureus (strain N315), UniProt P65502); type: functional, Staphylococcus aureus subsp. aureus N315; conditions: read-out: IC50_Mean;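 as to IC50 Mean: confirmatory dose-response retesting of NadD inhibitor hits first found in an ultra-high-throughput screen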
[9] = molecular target: T6, Probable nicotinate-nucleotide adenylyltransferase; type: functional, Staphylococcus aureus subsp. aureus N315
[10] = molecular target: T7, Small ubiquitin-related modifier 1 (Homo sapiens, UniProt P63165); assay: inhibitors of SUMO1 partner interactions, dose response, biochemical, FRET (AID 624383); type: functional; conditions: read-out: IC50_Mean
[11] = molecular target: T7, Small ubiquitin-related modifier 1; assay: inhibitors of SUMO1 peptide binding, dose response, biochemical, fluorescence polarization, uHTS hits (AID 624382); type: functional; conditions: read-out: IC50_Mean
[12] = THP-1 cell cytotoxicity, dose response, cytotoxicity control for Vif-APOBEC3G degradation inhibitor project, THP-1 cells (AID 1117359); type: functional; conditions: Human immunodeficiency virus 1, THP-1
[13] = HepG2 cell cytotoxicity, dose response, cytotoxicity control, cherry-picked samples (AID 1159577); type: functional, cell-based
[14] = P. falciparum Dd2 growth inhibitors, dose response, SYBR Green, cherry-picked samples (AID 1159567); type: functional, cell-based
[15] = tested on: Escherichia coli; assay: microbe, parasite or virus in culture
[16] = tested on: Escherichia coli; assay: microbe, parasite or virus in culture; remark: listed apart in the source
[17] = molecular target: NAD-dependent protein deacylase sirtuin-5, mitochondrial (Homo sapiens, UniProt Q9NXA8); assay: SIRT5 desuccinylase inhibitors, dose response, biochemical, fluorescence imaging, cherry-pick, set 5 (AID 720591);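 also: desuccinylation of succinyl peptide AMC substrate read as fluorescence after trypsin release; potency of inhibitors that lower fluorescence and may act on trypsin instead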
[18] = molecular target: G-protein coupled receptor 183 (Homo sapiens, UniProt P32249); assay: SAR confirmation of small molecule antagonists of the EBI2 receptor via a luminescent beta-arrestin assa.; type: functional
[19] = Jurkat T cell cytotoxicity, dose response, cytotoxicity control for P. falciparum gametocyte viability project, luminescence (AID 1117277); type: functional, cell-based;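 also: potency reflects loss of cellular ATP meaning fewer viable cells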
[20] = P. falciparum late gametocyte killing, dose response, luminescence (AID 1117278); type: functional, cell-based;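 also: gametocytes exposed to compound for 24 hours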
[21] = P. falciparum ATP4 D1247Y mutant growth inhibitors, dose response, NITD609-resistant line, SYBR Green, dry powder (AID 1159571); type: functional, cell-based;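 also: parasites synchronized at ring stage by sorbitol before testing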
[22] = P. falciparum 3D7-ScDHODH growth inhibitors, dose response, SYBR Green, dry powder samples (AID 1159570); type: functional, cell-based;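 also: parasite growth measured after 72 hours of compound exposure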
[23] = P. falciparum Dd2 growth inhibitors, dose response, SYBR Green, dry powder samples (AID 1159566); type: functional, cell-based;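 also: potency for growth inhibition with lower SYBR green DNA signal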
[24] = molecular target: T8, Low molecular weight phosphotyrosine protein phosphatase (Homo sapiens, UniProt P24666); assay: LMPTP phosphatase inhibitors, colorimetric pNPP readout, dose response, orthogonal assay, biochemical, absorbance, pNPP substrate, LMPTP-A isoform, set 2 (AID 743308); type: functional
T8 sequence (P24666 whole entry): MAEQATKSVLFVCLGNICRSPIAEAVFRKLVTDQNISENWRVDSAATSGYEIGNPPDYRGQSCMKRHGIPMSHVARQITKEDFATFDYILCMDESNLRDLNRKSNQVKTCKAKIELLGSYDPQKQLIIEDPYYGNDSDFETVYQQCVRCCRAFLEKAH

[25] = molecular target: T8, Low molecular weight phosphotyrosine protein phosphatase; assay: LMPTP phosphatase inhibitors, dose response, biochemical, OMFP substrate, fluorescence intensity, set 2 (AID 743307); type: functional
[26] = CellTiter-Glo luminescent dose response of DLD-1 viability loss (AID 1117352); type: functional
[27] = cytotoxicity toward Colo320 cells – cell-based, CellTiter-Glo luminescence, IC50, dose response (AID 1117334); type: functional; conditions: COLO 320
[28] = cytotoxicity toward HCT116 cells – cell-based, CellTiter-Glo luminescence, IC50, dose response (AID 1117332); type: functional; conditions: HCT-116
[29] = HeLa 2N DNA content increase, dose response, cell-based, IC50 (AID 1117349); type: functional
[30] = RKO cell viability reduction, dose response, CellTiter-Glo luminescence (AID 1117322); type: functional
[31] = Concentration-dependent survival of SW480 colon cancer line, luminescence detection with CellTiter-Glo, half-maximal inhibitory concentration (AID 1117338); type: functional
[32] = HeLa 4N DNA content increase, dose response, cell-based, IC50 (AID 1117351); type: functional
[33] = SNU-C1 cell viability reduction, dose response, CellTiter-Glo luminescence (AID 1117323); type: functional, cell-based
[34] = cytotoxicity toward HT-29 cells – cell-based, CellTiter-Glo luminescence, IC50, dose response (AID 1117330); type: functional

G-protein coupled receptor 183, sequence (P32249 whole entry): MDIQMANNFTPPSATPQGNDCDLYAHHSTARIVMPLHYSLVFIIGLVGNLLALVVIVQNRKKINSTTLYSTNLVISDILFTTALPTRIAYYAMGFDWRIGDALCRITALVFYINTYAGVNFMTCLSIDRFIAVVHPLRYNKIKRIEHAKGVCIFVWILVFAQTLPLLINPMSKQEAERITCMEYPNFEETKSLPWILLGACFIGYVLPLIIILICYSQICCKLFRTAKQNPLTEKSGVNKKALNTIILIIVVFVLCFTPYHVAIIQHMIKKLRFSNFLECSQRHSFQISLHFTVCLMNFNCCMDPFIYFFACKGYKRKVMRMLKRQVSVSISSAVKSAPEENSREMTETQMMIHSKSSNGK
NAD-dependent protein deacylase sirtuin-5, mitochondrial, sequence (Q9NXA8 whole entry): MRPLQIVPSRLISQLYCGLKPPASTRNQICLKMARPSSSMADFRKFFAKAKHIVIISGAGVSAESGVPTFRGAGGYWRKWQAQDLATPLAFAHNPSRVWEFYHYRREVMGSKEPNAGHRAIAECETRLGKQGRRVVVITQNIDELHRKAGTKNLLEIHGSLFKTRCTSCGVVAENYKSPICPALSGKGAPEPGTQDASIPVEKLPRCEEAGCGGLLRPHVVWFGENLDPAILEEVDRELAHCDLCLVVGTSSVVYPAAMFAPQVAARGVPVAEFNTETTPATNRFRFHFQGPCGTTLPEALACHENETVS
Protein Tat, sequence (P04608 whole entry, the tested form may be a part): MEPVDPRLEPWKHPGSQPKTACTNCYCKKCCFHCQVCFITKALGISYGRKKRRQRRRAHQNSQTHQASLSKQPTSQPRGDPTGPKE
T6 sequence (P65502 whole entry): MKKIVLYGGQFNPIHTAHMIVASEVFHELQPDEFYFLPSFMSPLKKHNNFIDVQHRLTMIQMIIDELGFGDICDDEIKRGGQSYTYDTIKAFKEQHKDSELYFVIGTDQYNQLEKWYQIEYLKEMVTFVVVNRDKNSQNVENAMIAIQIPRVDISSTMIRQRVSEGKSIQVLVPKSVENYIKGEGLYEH
T7 sequence (P63165 whole entry): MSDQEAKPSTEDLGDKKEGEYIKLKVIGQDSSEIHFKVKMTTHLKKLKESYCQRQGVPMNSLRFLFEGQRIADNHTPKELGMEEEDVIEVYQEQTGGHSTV

Cc1ccc2ccc(C3C(=O)c4ccccc4C3=O)nc2c1
EC50 [1]: > 67.6 µM (inactive) | EC50 [2]: 13.2 µM (not active) | EC50 [3]: 48.4 µM (active) | EC50 [4]: > 300 µM (not active) | EC50 [5]: > 67.6 µM (inactive)

O=C(COC(=O)c1c2c(nc3ccccc13)/C(=C\c1ccco1)CC2)NC1CCCC1
IC50 [6]: > 100 µM (active) | IC50 [7]: 2.49 µM (active) | IC50 [8]: 16.9 µM (active) | IC50 [9]: 8.49 µM (active) | IC50 [10]: 10.4 µM (active) | IC50 [11]: > 66.6 µM (inactive) | CC50 [12]: > 40 µM (active)

Fc1cccc(-c2ccc([C@@H]3[C@@H]4CN(Cc5cccnc5)C[C@H]3N4)cc2)c1
AC50 [13]: 13 µM (active) | AC50 [14]: 0.348 µM (active)

C=C1c2cccc(O)c2C(=O)C2C(=O)[C@]3(O)C(=O)C(C(N)=O)C(=O)[C@@H](N(C)C)[C@@H]3[C@@H](O)[C@H]12 (some centres undefined)
AC50 [15]: 2.19 µM (active) | AC50 [16]: 31.7 µM (active) | AC50 [17]: 12.7 µM (active)

COc1ccc(CCNC(=O)CN2CCCc3ccccc32)cc1OC
IC50 [6]: > 100 µM (active)

COC(=O)c1ccc2nc(-c3ccc(OC)c(OC)c3)c(Cc3ccccc3C(F)(F)F)n2c1
AC50 [17]: > 30 µM (inactive)

O=C(/C=C/c1ccc(Br)cc1)N1CCN(Cc2ccc(F)cc2C(F)(F)F)CC1
IC50 [18]: 0.00818 µM (active)

O=C(/C=C/c1ccc(Br)cc1F)N1CCN(S(=O)(=O)c2ccc(Br)cc2)CC1
IC50 [18]: 0.0655 µM (active)

CCc1nc(N2[C@H](C#N)[C@H](c3ccccc3-c3ccccc3F)[C@@H]2CO)sc1C
AC50 [13]: > 39 µM (inactive) | AC50 [14]: 8.71 µM (active)

CC(C)(C)c1cccc(OCCCSc2ncccn2)c1
IC50 [19]: > 83.3 µM (inactive) | IC50 [20]: > 109 µM (inactive)

C[C@@H]1CN([C@@H](C)CO)C(=O)Cc2cc(NC(=O)Nc3ccc4c(c3)OCO4)ccc2O[C@@H]1CN(C)CC1CC1
AC50 [21]: 2.76 µM (active) | AC50 [22]: 4.73 µM (active) | AC50 [14]: 2.37 µM (active) | AC50 [23]: 2.02 µM (active)

Cc1ccc2nc(-c3ccccc3)c(-c3ccccc3)nc2c1
IC50 [19]: > 83.3 µM (inactive) | IC50 [20]: > 109 µM (inactive)

c1ccc(-c2cc(OCCCN3CCCCC3)c3ccccc3n2)cc1
IC50 [24]: 19 µM (active) | IC50 [25]: 11.5 µM (active)

COc1ccc(-c2ccc3cc(C(=O)O)ccc3c2)cc1C12CC3CC(CC(C3)C1)C2
IC50 [26]: 0.597 µM (active) | IC50 [27]: 0.787 µM (active) | IC50 [28]: 0.59 µM (active) | IC50 [29]: > 10 µM (inactive) | IC50 [30]: 0.444 µM (active) | IC50 [31]: 0.405 µM (active) | IC50 [32]: > 10 µM (inactive) | IC50 [33]: 1.78 µM (active) | IC50 [34]: 1.12 µM (active)

COc1cc2nc(-c3ccccc3)cc(NCCCN3CCCCC3)c2cc1OC
IC50 [24]: > 80 µM (inactive) | IC50 [25]: > 80 µM (inactive)
